{"source": "paper PMC8211987", "about": "“Primaquine Diphosphate, a Known Antimalarial Drug, Blocks Vascular Leakage Acting Through Junction Stabilization” (Frontiers in Pharmacology, 2021)", "target": "T1, ubiquitin specific protease 1 (USP1) (Homo sapiens, UniProt O94782)", "T1 construct": "recombinant USP1/UAF1 complex; with UAF1", "T1 sequence (O94782 whole entry)": "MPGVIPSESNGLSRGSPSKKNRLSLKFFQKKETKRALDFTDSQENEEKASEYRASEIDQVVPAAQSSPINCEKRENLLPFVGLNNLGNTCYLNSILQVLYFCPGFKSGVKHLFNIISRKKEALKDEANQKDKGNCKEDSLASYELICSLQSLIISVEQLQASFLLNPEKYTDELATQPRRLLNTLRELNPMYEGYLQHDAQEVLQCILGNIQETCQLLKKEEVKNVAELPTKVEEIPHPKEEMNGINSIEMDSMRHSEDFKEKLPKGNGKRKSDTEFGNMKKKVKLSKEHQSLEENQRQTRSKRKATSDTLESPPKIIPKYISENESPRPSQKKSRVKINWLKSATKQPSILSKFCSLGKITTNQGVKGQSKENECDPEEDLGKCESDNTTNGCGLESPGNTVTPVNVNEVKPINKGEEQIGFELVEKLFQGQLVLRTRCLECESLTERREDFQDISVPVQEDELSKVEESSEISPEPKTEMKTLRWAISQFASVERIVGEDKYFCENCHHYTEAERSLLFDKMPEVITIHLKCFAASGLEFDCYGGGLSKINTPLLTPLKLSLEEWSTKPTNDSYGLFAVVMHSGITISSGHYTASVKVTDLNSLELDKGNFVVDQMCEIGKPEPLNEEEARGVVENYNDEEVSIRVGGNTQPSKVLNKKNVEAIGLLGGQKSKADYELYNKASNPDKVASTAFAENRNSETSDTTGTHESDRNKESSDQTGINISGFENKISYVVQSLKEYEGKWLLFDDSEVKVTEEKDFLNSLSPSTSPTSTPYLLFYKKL", "T1 sequence (Q8TAF3 whole entry partner)": "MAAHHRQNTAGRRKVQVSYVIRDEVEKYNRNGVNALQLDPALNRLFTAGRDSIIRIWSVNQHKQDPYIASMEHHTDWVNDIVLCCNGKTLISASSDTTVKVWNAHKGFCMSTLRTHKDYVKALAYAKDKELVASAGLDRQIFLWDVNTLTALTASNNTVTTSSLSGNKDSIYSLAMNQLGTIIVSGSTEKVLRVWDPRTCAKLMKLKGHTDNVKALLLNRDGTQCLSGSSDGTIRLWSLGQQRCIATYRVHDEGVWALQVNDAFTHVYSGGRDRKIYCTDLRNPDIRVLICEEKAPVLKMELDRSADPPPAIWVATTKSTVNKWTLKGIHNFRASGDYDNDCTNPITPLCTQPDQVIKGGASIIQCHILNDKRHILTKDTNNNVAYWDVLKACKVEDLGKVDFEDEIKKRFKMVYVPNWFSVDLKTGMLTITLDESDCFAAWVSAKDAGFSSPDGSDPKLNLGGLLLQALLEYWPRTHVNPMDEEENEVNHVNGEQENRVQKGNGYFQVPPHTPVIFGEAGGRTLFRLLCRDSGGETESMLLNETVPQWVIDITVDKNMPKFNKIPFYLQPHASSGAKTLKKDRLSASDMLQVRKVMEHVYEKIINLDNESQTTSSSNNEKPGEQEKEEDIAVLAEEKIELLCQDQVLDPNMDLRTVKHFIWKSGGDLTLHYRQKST", "assay": "Ub-AMC deubiquitinase activity assay with purified recombinant USP1/UAF1", "assay_type": "biochemical"}
{"smiles": "COc1cc(NC(C)CCCN)c2ncccc2c1", "note": "(stereo not shown) [PD, Primaquine diphosphate]", "values": [{"measurement": "IC50", "result": 25.4, "unit": "µM"}]}
